From US12433876B2, “Septin inhibitors for treatment of cancers” (UNIVERSITY OF ROCHESTER, priority 2019, dated 2025)

Tests used:
BXPC-3 cells [1] = experiment: Cell cycle analysis (PI, flow cytometry), BXPC-3; format: cell-based, human; settings: BXPC-3, 100 nM
Protocol: For cell cycle analysis, BXPC-3 and PANC-1 and JIMT-1 cells (100,000/well) were seeded overnight in a 6 well dishes and allowed to adhere overnight. Media was replaced with fresh complete medium supplemented with DMSO or UR214-9 (100 nM and 3 μM) and cells were incubated for 72 hours. The media containing the drugs was removed and cells were washed twice with PBS and trypsinized gently. The cells were collected in 15 mL tubes, complete DMEM media was added to block trypsin and cells were centrifuged. The supernatants were removed and cells were gently treated with 70% cold-EtOH for 30 minutes. The fixed cells were centrifuged and the pellets obtained were collected in flow cytometry tubes and stained with preformulated PI/RNase solution (Cell Signaling Technology, catalog number: 4087s) for 30 minutes. The PI content was analyzed using a flow cytometer. Data was processed using Flowjo software.

BXPC-3 cells [2] = experiment: Live/Dead dye flow cytometry, BXPC-3; format: cell-based, human; settings: BXPC-3, 3 μM, 48 hours
Protocol: Cell Lines, Cell Culture, and Reagents. PANC-1, BXPC-3 and CAPAN-1, SKOV-3, MCF7, MDA-MD-231 cells were obtained from ATCC and maintained in DMEM, RPMI-1640 and IMDM supplemented with 10% fetal calf serum penicillin (100 units/mL), and streptomycin (100 μg/mL) at 37° C. with 5% CO2 in a humidified incubator. JIMT-1 cells were purchased from AddexBio Inc, USA (catalog number: C0006005) and maintained in 10% FBS and antibiotic supplemented DMEM. […] The reaction was monitored using thin-layer chromatography plates with DCM-MeOH or pure ethyl acetate as eluent. Spots were monitored in a UV chamber. […] ICM scores for each compound and their poses were calculated and compared with FCF. […] Cell viability of PANC-1, BXPC-3 and CAPAN-1 pancreatic cancer cells treated with UR214-9 was measured using the Cell Titre96R Aqueous One Solution Cell Proliferation Assay (Promega Corp., catalog number: G3580) following the procedure published earlier. […] The cells were analyzed by a 305 flow cytometer and relative live and dead cell population was calculated by inputting equal number of cells in both vehicle and control group.

O=C(Nc1cc(Cl)nc(Cl)c1)Nc1cccc(SC(F)(F)F)c1F [UR214-9]
cell cycle distribution (BXPC-3 cells [1]): no change in cell cycle distribution
dead cells (BXPC-3 cells [2]): 29.4%
